“Also recorded” adds a separate entry of the source.
Columns and labels:
[1] = target: hERG channel (Homo sapiens, UniProt Q12809); test: in vitro; settings: for IC50 at 60 min: human
From the text: The HEK-293 cell line stably expressing the hERG potassium channel (accession number U04270) referred to as hERG-HEK cells were received at passage 11 from Millipore (CYL3006, lot 2, Billerica, MA). [^3H]-Dofetilide (specific activity of 80 Ci/mmol; labeled on the N-methyl group) was obtained from American Radiolabeled Chemicals, St. Louis, MO Other chemicals and solvents were obtained from Sigma-Aldrich (Milwaukee, WI) with exceptions of polyethylenimine (PEI), which was obtained from Fluka/Sigma-Aldrich (St. Louis, MO), and Minimium Essential Medium (MEM) with GlutaMAX™ and phenol red, MEM non-essential amino acids solution (NEAA, 100×), G418 disulfate salt solution, fetal bovine serum (FBS), 0.05% Trypsin-EDTA 1× with phenol red, and Hank's balanced salt solution (HBSS), which were obtained from Life Technologies (Carlsbad, CA).
The hERG-HEK cells were cultured according to the protocol provided by Millipore. Cells were maintained in MEM (with GlutaMAX™ and phenol red) supplemented with 10% FBS, 1% NEAA and 400 μg/mL G418 disulfate salt, and incubated at 37° C. in a humidified atmosphere with 5% CO2. Frozen aliquots of cells were transferred into T-75 cm^2 flasks and allowed to adhere for 4-8 h. The medium was replaced every 2 days. Passages were carried out at least 3 times after thawing at 6-day intervals. Cells were dissociated with trypsin/EDTA and seeded into new 150×25 mm dishes at 2-3×10^6 cells per dish and placed at 30° C., 5% CO2, for 40-48 h prior to membrane preparation. Membrane preparation occurred 6 days after the last passage (passage 20).
Cell membrane preparation was based on previous methods. Cells were rinsed twice with HBSS at 37° C. and collected by scraping the dishes in ˜20 mL of ice-cold 0.32 M sucrose and homogenized on ice with a Teflon pestle using a Maximal Digital homogenizer (Fisher Scientific, Pittsburgh, PA) at ˜280 rpm for 30 sec. Homogenates were centrifuged at 300 g and 800 g for 4 min each at 4° C. Pellets were resuspended in 9 mL of ice-cold Milli-Q H2O and osmolarity restored by addition of 1 mL of 500 mM Tris buffer (pH 7.4) followed by suspension and centrifugation at 20,000 g for 30 min at 4° C. Pellets were homogenized in 2 mL assay buffer (50 mM Tris, 10 mM KCl, and 1 mM MgCl2, 4° C.) and aliquots of cell membrane suspensions were stored at −80° C. and thawed the day of the [^3H]-dofetilide binding assay. Protein content was determined prior to the assay using a Bradford protein assay with bovine albumin as the standard.
[^3H]-Dofetilide binding assays using hERG-HEK293 cell membranes were based on previous methods. Assays determining concentration-response were conducted in duplicate, and three independent assays were performed for each analogue evaluated. Cell membrane suspension (5 μg) was added to duplicate tubes containing assay buffer, 25 μL of a single concentration of N,N-dialkylaminostilbene agent (FIDAS agent) (concentration range of 10 nM-100 μM for each experiment), and 25 μL of [^3H]-dofetilide (5 nM, final concentration) for an assay volume of 250 μL. Binding occurred for 60 min at 25° C. and was terminated by rapid filtration through Whatman GF/B filters, which were pre-soaked in 0.25% PEI overnight, using a Brandel cell/membrane harvester (M-48; Brandel Inc., Gaithersburg, MD). […] Radioactivity was determined by liquid scintillation spectrometry using the Tri-Carb 2100-TR Liquid Scintillation Analyzer (Perkin-Elmer Life and Analytical Sciences).

[2] = tested on: C. albicans ATCC 64124 (strain B); test: Time-kill assay; type: cell-based, Candida albicans
From the text: (§1) To determine the fungistatic or fungicidal nature of the compounds, time-kill assays were next performed over a 24-hour period with 4,4′-bis((E)-1-(2-(4-fluorophenyl)hydrazono)ethyl)-1,1′-biphenyl (17c).
(§2) Time-kill assays were used to assess the inhibitory efficiency of compound 17c against two yeast strains, C. albicans ATCC 10231 (strain A) and C. albicans ATCC 64124 (strain B). The protocol for time-kill assays followed methods previously described with minor modifications. Yeast cultures were grown overnight in YPD medium at 35° C. with shaking at 200 rpm. A working stock of fungal cells was made by diluting cultures in RPMI 1640 medium to an OD600 of 0.125 (˜1×10^6 CFU/mL). From the working stock, 100 μL of cells were added to 4.9 mL of RPMI 1640 medium in sterile culture tubes, making the starting fungal cell concentration […]. Compounds were then added to the fungal cells. […] The treated fungal cultures were incubated at 35° C. with 200 rpm shaking for 24 h. Samples were aliquoted from the different treatments at regular time points (0, 3, 6, 9, 12, and 24 h) and plated in duplicate. For each time point, cultures were vortexed, 100 μL of culture were aspirated, and 10-fold serial dilutions were made in sterile ddH2O. From the appropriate dilutions, 100 μL of fungal suspension was spread onto PDA plates and incubated at 35° C. for 48 h before colony were counted. At 24 h, 50 μL of 1 mM resazurin in PBS was added to the treatments and incubated at 35° C. with 200 rpm shaking for 2 h in the dark for visual inspection (FIGS. 5A-D). Experiments were performed in duplicate.

[3] = tested on: C. albicans ATCC 10231 (strain A); test: Time-kill assay; type: cell-based, Candida albicans
From the text: as §1, §2

Chain of hERG channel (Q12809 whole entry): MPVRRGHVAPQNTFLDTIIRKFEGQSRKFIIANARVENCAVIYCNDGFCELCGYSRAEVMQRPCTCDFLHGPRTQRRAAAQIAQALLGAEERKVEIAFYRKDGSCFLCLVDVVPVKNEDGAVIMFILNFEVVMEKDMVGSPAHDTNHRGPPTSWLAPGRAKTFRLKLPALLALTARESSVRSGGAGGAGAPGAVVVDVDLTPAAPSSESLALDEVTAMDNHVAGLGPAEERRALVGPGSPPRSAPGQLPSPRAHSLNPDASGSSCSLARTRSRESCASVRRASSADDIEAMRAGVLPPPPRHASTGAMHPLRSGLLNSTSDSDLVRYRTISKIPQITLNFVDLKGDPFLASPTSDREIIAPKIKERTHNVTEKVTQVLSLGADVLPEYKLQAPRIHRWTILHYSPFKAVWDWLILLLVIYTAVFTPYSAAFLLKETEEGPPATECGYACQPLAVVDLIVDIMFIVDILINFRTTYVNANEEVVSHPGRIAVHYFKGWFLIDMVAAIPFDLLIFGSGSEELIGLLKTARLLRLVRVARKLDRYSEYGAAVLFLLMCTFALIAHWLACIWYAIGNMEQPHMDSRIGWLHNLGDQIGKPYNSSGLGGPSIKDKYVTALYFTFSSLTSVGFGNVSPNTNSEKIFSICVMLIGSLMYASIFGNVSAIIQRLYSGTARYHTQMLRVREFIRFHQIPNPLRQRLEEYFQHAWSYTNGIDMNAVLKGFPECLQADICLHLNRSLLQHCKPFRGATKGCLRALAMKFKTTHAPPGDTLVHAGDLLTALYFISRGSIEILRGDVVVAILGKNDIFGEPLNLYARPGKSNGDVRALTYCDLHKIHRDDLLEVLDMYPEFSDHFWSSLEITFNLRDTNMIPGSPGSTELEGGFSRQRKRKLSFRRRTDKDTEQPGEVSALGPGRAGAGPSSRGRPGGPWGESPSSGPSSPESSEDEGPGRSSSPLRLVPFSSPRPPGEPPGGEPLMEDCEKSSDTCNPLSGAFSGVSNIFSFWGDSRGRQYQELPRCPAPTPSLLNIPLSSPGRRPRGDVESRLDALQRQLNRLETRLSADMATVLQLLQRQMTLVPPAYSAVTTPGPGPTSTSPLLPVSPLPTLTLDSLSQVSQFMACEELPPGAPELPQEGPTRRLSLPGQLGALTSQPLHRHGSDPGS

Compound | IC50 at 60 min [1] | hERG inhibition (in words) [1] | reduction in fungal growth compared with VOR ([2]; 17c at equal to or one-half of the MIC value versus VOR at the MIC value) | fungistatic or fungicidal nature ([2]; 24-hour period, up to twice its MIC value) | reduction in fungal growth compared with VOR ([3]; 17c at one-half of the MIC value versus VOR at the MIC value) | fungistatic or fungicidal nature ([3]; 24-hour period, 0.5x, 1x, 2x MIC)
COc1ccc(N/N=C/c2ccc(-c3cccc(/C=N/Nc4ccc(OC)cc4)c3)cc2)cc1 [Compound 15a] | > 30 µM | – | – | – | – | –
COc1ccc(N/N=C/c2ccc(-c3ccc(/C=N/Nc4ccc(OC)cc4)cc3)cc2)cc1 [Compound 15b] | > 30 µM | – | – | – | – | –
Fc1ccc(N/N=C/c2ccc(-c3cccc(/C=N/Nc4ccc(F)cc4)c3)cc2)cc1 [Compound 17a] | > 30 µM | – | – | – | – | –
C/C(=N\Nc1ccc(F)cc1)c1ccc(-c2ccc(/C(C)=N/Nc3ccc(F)cc3)cc2)cc1 [Compound 17c, 4,4′-bis((E)-1-(2-(4-fluorophenyl)hydrazono)ethyl)-1,1′-biphenyl] | > 30 µM | no hERG inhibition | greater reduction in fungal growth | fungistatic; also recorded: more fungistatic than the control drug VOR | greater reduction in fungal growth | fungistatic; also recorded: more fungistatic than the control drug VOR

Source: patent publication US11851391B2, “Antifungal compounds and methods of forming the same” (University of Kentucky Research Foundation, priority 2018, dated 2023)
